The species entered for this assay is Homo sapiens. Description: In vitro inhibition of platelet aggregation by measuring its effect on the ADP-stimulated aggregation of human platelets. Type of assay: functional.

The compound `CCCCS(=O)(=O)NC(CC#Cc1ccc2nc(C)n(CCC3CCNCC3)c(=O)c2c1)C(=O)O` (configuration not stated) showed an IC50 of 0.043 µM.

`CCCCS(=O)(=O)NC(CC#Cc1ccc2[nH]c(=O)n(CCC3CCNCC3)c(=O)c2c1)C(=O)O` (configuration not stated) displayed an IC50 of 0.037 µM.

`CCCCS(=O)(=O)NC(CCCc1ccc2c(c1)c(=O)n(CCC1CCNCC1)c(=O)n2C)C(=O)O` (configuration not stated) had an IC50 of 0.14 µM.

In the case of `CCCCS(=O)(=O)NC(CCCc1ccc2c(c1)c(=O)n(CCC1CCNCC1)c(=O)n2Cc1ccccc1)C(=O)O` (configuration not stated), the IC50 came to 0.16 µM.

Take `CCCCS(=O)(=O)NC(CNC(=O)c1ccc2[nH]c(=O)n(CCC3CCNCC3)c(=O)c2c1)C(=O)O` (configuration not stated): 0.21 µM corresponded to half-maximal inhibition (IC50).

In the case of `CCCCS(=O)(=O)NC(CC#Cc1ccc2c(c1)c(=O)n(CCC1CCNCC1)c(=O)n2C)C(=O)O` (configuration not stated), half-maximal inhibition (IC50) was put at 0.067 µM.

Compound `CCCCS(=O)(=O)NC(CC#Cc1ccc2c(c1)c(=O)n(CCC1CCNCC1)c(=O)n2Cc1ccncc1)C(=O)O` (configuration not stated) returned a 50% inhibitory concentration (IC50) of 0.074 µM.

In the case of `CCCCS(=O)(=O)NC(CC#Cc1ccc2c(c1)c(=O)n(CCC1CCNCC1)c(=O)n2Cc1ccccc1)C(=O)O` (configuration not stated), half-maximal inhibition (IC50) required 0.061 µM.

`CCCCS(=O)(=O)N[C@@H](Cc1ccc(OCCCCC2CCNCC2)cc1)C(=O)O`: the concentration for half-maximal inhibition (IC50) was determined as 0.015 µM.

As to `CCCCS(=O)(=O)N[C@@H](CNC(=O)c1ccc2c(c1)C(=O)N(CCC1CCNCC1)C2)C(=O)O`, the IC50 was 0.009 µM.

`CCCCS(=O)(=O)NC(CCCc1ccc2c(c1)c(=O)n(CCC1CCNCC1)c(=O)n2Cc1ccncc1)C(=O)O` (configuration not stated) displayed an IC50 of 0.1 µM.

Take `CCCCS(=O)(=O)NC(CCCc1ccc2[nH]c(=O)n(CCC3CCNCC3)c(=O)c2c1)C(=O)O` (configuration not stated): the IC50 was 0.16 µM.

The values above are taken from ChEMBL document CHEMBL1130763, “Nonpeptide glycoprotein IIb/IIIa inhibitors: substituted quinazolinediones and quinazolinones as potent fibrinogen receptor antagonists” (Bioorg Med Chem Lett, 1998).
